This note sets out measurements from patent US20220268782A1, “METHODS FOR PREDICTING AND TREATING CARDIAC DYSFUNCTION” (INSERM (INSTITUT NATIONAL DE LA SANTÉ EAT DE LA RECHERCHE …, priority 2019, published 2022).

Holding throughout (assay type): cell-based
Assay [1] relates to C2C12 myoblasts. The assay can be described thus: PA-induced senescence in C2C12 myoblasts (immunoblot of senescence markers, EdU incorporation). To be noted: C2C12 cells. Here is the method: (§1) Cells were washed briefly with ice-cold 1×PBS, scraped in 400 μL T-PER lysis buffer (ThermoFisher) supplemented with 0.1 mM phenylmethylsulphonyl fluoride (PMSF) and protease/phosphatase inhibitor cocktail tablet (ThermoFisher). Pulverised tissue samples (20-30 mg) were lysed in the same buffer accelerated by sonication and passing through a 21 G needle. To pellet any debris, lysates were centrifuged at 10,000 g for 10 minutes at 4° C., with the supernatant transferred to fresh tubes. Protein concentrations were determined with Bradford assay (Biorad) and lysates were diluted to equal concentration with lysis buffer. Protein lysates were then mixed with Laemmli buffer, vortexed and heated to 95° C. for 5 min. Equal amounts of protein lysates in parallel with protein molecular weight marker (ThermoFisher) were loaded onto pre-cast polyacrylamide gels (Nupage 10 or 12% Bis Tris gel, Novex, Invitrogen) and separated by electrophoresis at 200V for 1 hour. Proteins were transferred onto polyvinylidene difluoride (PVDF) membrane (Invitrogen) using an electrophoretic transfer cell (Mini Trans-Blot, Bio-Rad) in ice-cold transfer buffer (48 mM Tris base, […], 0.1% SDS, 20% methanol (v/v)) at 300 mA for 2 hours. Membranes were blocked in 1× skimmed milk (ThermoFisher) for 1 hour at room temperature, followed by overnight incubation with primary antibody diluted in blocking buffer at 4° C. Next day membranes were washed, followed by 60 minutes incubation in the corresponding horseradish peroxidase (HRP)-conjugated secondary antibody diluted 1:2000-10000 in blocking buffer (all Abcam). Blots were developed using enhanced chemiluminescence (ECL) reagents (normal, Prime & Select) and digital images were acquired using an imaging system (Azure Biosystems). Membranes were usually stripped of antibodies and reprobed with an antibody targeting a protein serving as loading control (α-actinin for hearts & β-actin for all others). For this procedure, membranes were placed in Guanidine-HCl-based stripping solution (6M Guanidine-HCl, 0.2% Nonidet P-40, 0.1M β-mercaptoethanol, 20 mM Tris-HCl, pH 7.5 and 100 mM 2-mercaptoethanol) and incubated for 10 minutes at room temperature with gentle agitation, followed by extensive washing and re-blocking.^5
(§2) C2C12 (ATCC® CRL-1772™) myoblasts maintained in DMEM supplemented with L-glutamine (2 mM), penicillin/streptomycin (1%) and 5% fetal bovine serum (FBS) were seeded either at a density of 5×10^4 cells (<50%) per well in 24-well plates or 10^4 cells in 4-well chamber slides. Cells were with L-phenylalanine (1-10 mM)+BH4 (10 μM) and incubation with increasing concentrations of N-acetylcysteine (0.5, 2.5, 5 mM) vs. vehicle overnight as indicated. Cells were analysed for oxidative stress with MitoSOX™ (mitochondrial superoxide; 5 μM, ThermoFisher Scientific), CellROX™ (cytosolic superoxide; 5 μM, ThermoFisher Scientific), gene or protein expression, or various metabolites (see below).
Background: In western blotting, separated proteins are transferred to a membrane and probed.

In assay [2] the test system is C2C12 myoblasts. As to the kind of experiment: Oxidative stress in C2C12 cells (CellROX cytosolic superoxide, MitoSOX mitochondrial superoxide, GSH). Here is the method:
as §2
(§3) Levels of reduced glutathione (GSH; ThermoFisher), phenylalanine (BioVision) and tyrosine (BioVision) were determined from cells or plasma, with respective agents/kits following the manufacturer's recommendations. Specifically, GSH levels were estimated with the aid of ThiolTracker™ Violet fluorescent probe (ThermoFisher). Plasma and liver phenylalanine levels were determined using an enzyme-coupled, fluorometric method (BioVision). Briefly, samples were deproteinized via trichloroacetate precipitation, neutralised, tyrosinase-treated (to remove tyrosine that may interfere) and diluted to fit in the standard curve. Fluorescence reading took place at 587 nm after excitation at 535 nm. Levels of tyrosine in cells or conditioned media were determined after deproteinization using 10 kDa cut-off columns with an enzyme-coupled, colorimetric method with reading at 491 nm (BioVision).

Assay [3] relates to AML-12 hepatocytes. The assay can be described thus: AML-12 hepatocytes: p21, Pah immunoblot and tyrosine production. Here is the method: as §1
AML12 cells (ATCC® CRL-2254™) were maintained in DMEM/F-12 (1:1) culture media supplemented with 10% FBS, 10 μg/ml insulin, 5.5 μg/ml transferrin, 5 ng/ml selenium, 40 ng/ml dexamethasone and 1% penicillin/streptomycin. Cells were sub-cultivated from subconfluent flasks with a ratio from 1:4 to 1:8. For WB analysis, cells were plated on 6-well plates and harvested at 80-90% of confluence. AML12 cells were transfected with indicated siRNA (Table 2) at 80% confluence using Lipofectamine RNAiMAX Transfection Reagent (ThermoFischer Scientific 13778030) following the manufacturer's instructions. Transfection efficiency was constantly checked using BLOCK-IT Alexa Fluor Red Fluorescent Control (ThermoFischer Scientific 14750100).
as §3

As to `CC(O)C(O)C1CNc2nc(N)[nH]c(=O)c2N1` (stereo not shown) [BH4, 2-amino-6-(1,2-dihydroxypropyl)-5,6,7,8-tetrahydro-3H-pteridin-4-one], the “PA-dependent senescence (p21 protein, EdU incorporation)” value in assay [1] (PA 5 mM + BH4 10 μM, FIG. 1c-d) was “antagonised”. For the same molecule, in assay [2] (PA plus co-treatment (BH4 10 μM or NAC), FIG. 1f), the “cytosolic superoxide levels under PA treatment” value is “normalized”. The “reduced glutathione (GSH) levels under PA treatment” value in assay [2] (PA plus co-treatment, data not shown) was “restored normal”. In assay [3] (Nutlin3a plus co-treatment, FIG. 4o, 4r), the “Pah levels under Nutlin3a-induced senescence” value is given as “derepressed”. The “tyrosine production / levels under Nutlin3a-induced senescence” value in assay [3] (Nutlin3a plus co-treatment, FIG. 4p, 4q) is recorded as “derepressed”.
Turning to `N[C@@H](Cc1ccccc1)C(=O)O` [PA, (S)-2-Amino-3-phenylpropanoic acid], the “other markers of senescence (Cdkn2a=p16 and phospho-p53=p-p53)” value in assay [1] (PA 5 mM vs. vehicle, FIG. 1a) is recorded as “remained unaltered”. Moreover, the “cyclin-dependent kinase 1a (Cdkn1a=p21) protein” value in assay [1] (PA 5 mM vs. vehicle, FIG. 1a-b) was “selectively induced”. Besides, in assay [1] (PA treatment, FIG. 1d), the EdU incorporation entry is reported as “suppressed”. In addition, in assay [2] (as a function of PA concentration, FIG. 1e), the “cytosolic superoxide levels (CellROX probe)” value is listed as “incrementally increased”. The p21 protein entry in assay [3] (increasing concentrations of PA (0-10 mM), FIG. 4n) was “dose-dependent induction”.
